Data: patent US6242199A, “Assays for growth hormone secretagogue receptors” (Merck & Co., Inc., priority 1998, dated 2001)

Legend:
[1] = system: swine Type I GHSR; assay: Aequorin bioluminescence assay in Xenopus oocytes, swine Type I GHSR; format: cell-based; conditions: swine Type I cRNA in oocytes; tested from 1 μM down
Procedure: (§1) Xenopus laevis oocytes were isolated and injected using standard methods previously described by Arena, et. al. 1991, Mol. Pharmacol. 40, 368-374, which is hereby incorporated by reference. Adult female Xenopus Laevis frogs (purchased from Xenopus One, Ann Arbor, Mich.) were anesthetized with 0.17% tricaine methanesulfonate and the ovaries were surgically removed and placed in a 60 mm culture dish (Falcon) containing OR-2 medium without calcium (82.5 mM NaCl, 2 mM KCl, 2.5 mM sodium pyruvate, 1 mM MgCl2, 100 μ/ml penicillin, 1 mg/ml streptomycin, 5 mM HEPES, pH=7.5; ND-96 from Specialty Media, NJ). Ovarian lobes were broken open, rinsed several times, and oocytes were released from their sacs by collagenase A digestion (Boehringer-Mannheim; 0.2% for 2-3 hours at 18° C.) in calcium-free OR-2. […]
(§2) The ABA requires injection of library pool cRNA (25 ng/egg for pool sizes of 500 to 10,000) with aequorin cRNA (2 ng/egg) supplemented with the G-protein alpha subunit Gα11 (2 ng/egg). […] Polymerase chain reaction (PCR) was utilized to generate a DNA fragment corresponding to the open reading frame (ORF) of the aequorin cDNA with an optimized Kosak translational initiation sequence (Inouye, S. et. al., 1985, Proc. Natl. Acad. Sci. USA 82:3154-3158). […]

[2] = system: swine growth hormone secretagogue receptor (GHSR); assay: Aequorin bioluminescence assay in Xenopus oocytes injected with swine pituitary mRNA / cDNA library pool or clone cRNA; format: cell-based; conditions: 1 μM
Procedure: as §1, §2

[3] = biological target: T1, growth hormone secretagogue receptor (GHSR), porcine anterior pituitary membranes (Sus scrofa, UniProt Q95254); assay: [35S]-Compound A radioreceptor binding, porcine anterior pituitary membranes
T1 construct: Frozen anterior pituitary glands from male swine (50-80 Kg); from tissue; host or cells: anterior pituitary glands of male swine (50-80 kg), crude membranes
T1 sequence (Q95254 whole entry): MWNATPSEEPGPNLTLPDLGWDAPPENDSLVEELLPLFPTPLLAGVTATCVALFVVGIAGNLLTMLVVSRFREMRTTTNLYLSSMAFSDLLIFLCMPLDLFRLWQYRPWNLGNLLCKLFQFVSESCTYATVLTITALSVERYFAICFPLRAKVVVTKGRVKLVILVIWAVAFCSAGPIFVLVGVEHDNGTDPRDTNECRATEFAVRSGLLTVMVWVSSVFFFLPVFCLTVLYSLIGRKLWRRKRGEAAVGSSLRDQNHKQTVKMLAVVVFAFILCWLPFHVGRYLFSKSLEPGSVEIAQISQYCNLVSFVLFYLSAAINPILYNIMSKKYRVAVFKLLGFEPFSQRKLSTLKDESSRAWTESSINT
Procedure: Frozen anterior pituitary glands from male swine (50-80 Kg) or from the Wistar male rats (150-200 g) were homogenized in a tissue homogenizer in ice-cold buffer (50 mM Tris-HCl buffer, pH 7.4, 5 mM MgCl2, 2.5 mM EDTA, 0.1% bovine serum albumin and 30 μg/ml bacitracin). The homogenates were centrifuged for 5 min at 1,400×g and the resulting supernatants were then centrifuged at 34,000×g for 20 min. The pellets were resuspended in same buffer to a 1,500 μg protein/ml and stored at -80° C. Protein was determined by a Bio-Rad method (Bio-Rad Laboratories, Richmond, Calif.).
Aliquots were incubated at 20° C. for 60 min and bound radioligand was separated from free by filtration through GF/C filters pretreated with 0.5% of polyethylenimine in a Brandel cell harvester. […] Assays were carried out in triplicate and experiments repeated at least three times.

- bioluminescence response (in words) ([2]; clones 7-3 and 28-18): positive bioluminescence response
- bioluminescent signal (in words) ([2]; pool P541): positive bioluminescent signal
- specific binding of [35S]-Compound A detected in the absence of Mg2+ ([3]; absence of Mg2+, in comparison with control (10 mM Mg2+)): 15-25%
- Ki ([3]; competition with [35S]-Compound A, read-out: inhibition constant, Ki): 0.24 nM
- concentration (Bmax) ([3]; porcine anterior pituitary membranes, Scatchard analysis, n=4): 6.3±0.6 fmol/mg of protein
- Kd ([3]; porcine anterior pituitary membranes, Scatchard analysis, n=4, read-out: apparent dissociation constant (KD)): 0.161 ± 0.011 nM
- specific binding of total binding ([3]; porcine membranes, nonspecific in 500 nM unlabeled Compound A): 65-85%
- displacement of / competition with [35S]-Compound A binding (in words) ([3]; unlabeled competitor, FIG. 24): completely displaced
SMILES: CC(C)(N)C(=O)N[C@H](COCc1ccccc1)C(=O)N1CCC2(CC1)CN(S(C)(=O)=O)c1ccccc12 [Compound A, (N-[1(R)-[1,2-dihydro-1-methanesulfonlylspiro[3H-indole-3,4'-piperidin]-1'-yl)carbonyl]-2-(phenylmethyloxy)-ethyl]-2-amino-2-methyl-propanamide]
- lowest Compound A concentration giving a response [1]: 0.1 nM
